Measured values taken from patent US4481192A, “Acid-protease inhibiting peptide derivatives” (SANOFI, priority 1982, dated 1984).
Where two headings read alike, the source gives them in different places. Non-standard residues stand in square brackets, D forms with d. Residues, ends and D or L forms follow the SMILES beside them. *: point of attachment. Benzylsulfonyl = O=S(=O)(Cc1ccccc1)*; Sta = CC(C)C[C@H](N)[C@@H](O)CC(=O)O; Isovaleryl = CC(C)CC(=O)*; Cbz = O=C(OCc1ccccc1)*; Boc = CC(C)(C)OC(=O)*

Columns and labels:
Format in all cases: biochemical
cathepsin D = target: T1, cathepsin D (Bos taurus, UniProt P80209); test: Enzyme inhibition of cathepsin D; conditions: pH 3.2, substrate bovine haemoglobin, 37° C., incubation 30 minutes
T1 construct: purchased SIGMA C 3138
Experimental: The method used is very similar to the pepsin method (T. AOYAGI, 1971).
The substrate used is bovine haemoglobin and the enzyme is cathepsin D of bovine origin (SIGMA, No.C 3138, batch 26 C-8100).
0.5% strength haemoglobin is hydrolysed with cathepsin D (200 μg/ml) at 37° C. in citrate-phosphate buffer at pH 3.2.
The substrate, the inhibitor and the enzyme are incubated for 30 minutes.
After precipitation of the proteins with 1.7M perchloric acid, the optical density of the supernatant is determined on a spectrophotometer at 280 nm.
The results are expressed as the percentage reduction in the maximum optical density obtained in the absence of inhibitor.
(§1) A 10^-3 M stock solution of the peptide is made up in a mixture containing equal volumes of a solution A (19 ml of methanol+1 ml of acetic acid) and a solution B (4 ml of methanol+2 ml of sodium hydroxide solution).
(§2) The subsequent dilutions of the peptide are then prepared in the appropriate buffer in accordance with the procedures described above.

porcine pepsin = porcine pepsin (Sus scrofa, UniProt P00791); test: Inhibition of porcine pepsin; conditions: pH 2, substrate bovine haemoglobin, 37° C.
Experimental: The method used is that of TAKAAKI AOYAGI (J. Antibiotics, 24, pages 687-694, 1971). The substrate used is bovine haemoglobin and the enzyme is porcine pepsin.
0.5% strength haemoglobin is hydrolysed with pepsin (1 mcg/ml) at 37° C. in 0.02M KCl-HCl buffer at pH 2.
Preincubation takes place for 3 minutes, followed by incubation for 25 minutes. After precipitation of the proteins with 1.7M perchloric acid, the optical density of the supernatant is determined on a spectrophotometer at 280 nm.
The results are expressed as the percentage inhibition of the maximum optical density obtained in the absence of inhibitor. They are also expressed as an IC50.
as §1, §2

[1] = target: T2, human plasma renin activity (Homo sapiens, UniProt P00797); test: Inhibition of the human plasma renin activity (P.R.A.); conditions: 37° C., pool of human plasma
T2 construct: the human plasma contain and the substrate: angiotensinogen, and the enzyme: renin; from tissue; host or cells: pool of human plasma
T2 sequence (P00797 67-406): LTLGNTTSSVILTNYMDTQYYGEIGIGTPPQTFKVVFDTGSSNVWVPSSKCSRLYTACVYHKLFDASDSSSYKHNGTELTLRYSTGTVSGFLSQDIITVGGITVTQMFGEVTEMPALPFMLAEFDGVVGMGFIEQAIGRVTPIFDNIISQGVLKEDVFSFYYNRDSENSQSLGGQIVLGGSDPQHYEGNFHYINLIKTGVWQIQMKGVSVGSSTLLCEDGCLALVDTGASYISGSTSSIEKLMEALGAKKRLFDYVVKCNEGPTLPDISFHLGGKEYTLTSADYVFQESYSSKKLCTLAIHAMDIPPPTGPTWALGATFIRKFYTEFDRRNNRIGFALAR
Experimental: The angiotensin I released during the reaction (the human plasma contain and the substrate: angiotensinogen, and the enzyme: renin) is measured by radioimmunological determination using a kit.
Of course, an inhibitor of the enzyme for conversion of the PMSF (phenylmethylsulphonyl fluoride) is added to the incubation medium.
Two types of experiments were carried out:
one at pH 6, which is the optimum pH for the enzyme reaction with human renin (maleate buffer, incubation: 30 minutes), and
the other at pH 7.4, which is the physiological pH (phosphate buffer, incubation: 60 minutes).
as §1, §2

[2] = pH 7.4, phosphate buffer, incubation 60 minutes, read-out: INHIBITION OF HUMAN P.R.A. (IC50) pH 7.4
[3] = pH 6, maleate buffer, incubation 30 minutes, read-out: INHIBITION OF HUMAN P.R.A. (IC50) pH 6

T1 sequence (P80209 45-390): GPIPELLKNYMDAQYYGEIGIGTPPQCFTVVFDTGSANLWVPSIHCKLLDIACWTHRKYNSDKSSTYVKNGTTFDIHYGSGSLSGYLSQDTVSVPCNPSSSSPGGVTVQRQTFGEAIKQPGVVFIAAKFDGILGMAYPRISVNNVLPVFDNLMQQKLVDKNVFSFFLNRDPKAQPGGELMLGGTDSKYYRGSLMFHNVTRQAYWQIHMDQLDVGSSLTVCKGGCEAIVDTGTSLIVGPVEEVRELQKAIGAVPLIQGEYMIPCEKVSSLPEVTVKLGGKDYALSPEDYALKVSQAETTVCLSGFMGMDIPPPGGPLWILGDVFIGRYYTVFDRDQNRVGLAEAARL
Chain of porcine pepsin (P00791 60-385): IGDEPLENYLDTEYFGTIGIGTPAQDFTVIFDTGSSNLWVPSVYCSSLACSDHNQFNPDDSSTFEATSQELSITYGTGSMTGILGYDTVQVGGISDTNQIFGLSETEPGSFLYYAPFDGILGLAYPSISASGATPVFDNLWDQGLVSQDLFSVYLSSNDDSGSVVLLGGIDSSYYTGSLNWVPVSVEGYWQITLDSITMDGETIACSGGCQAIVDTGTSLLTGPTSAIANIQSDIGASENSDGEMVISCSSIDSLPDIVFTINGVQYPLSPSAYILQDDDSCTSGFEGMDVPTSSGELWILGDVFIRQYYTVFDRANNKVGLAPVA

IC50 (cathepsin D)	IC50 (porcine pepsin)	IC50 [1, 2]	IC50 [1, 3]	SMILES
0.095 µM	0.065 µM	–	–	COC(=O)C[C@H](O)[C@H](CC(C)C)NC(=O)[C@H](C)NC(=O)C[C@H](O)[C@H](CC(C)C)NC(=O)[C@@H](NC(=O)[C@H](Cc1ccccc1)NC(=O)OCc1ccccc1)C(C)C [SR 41405, Z--Phe--Val--Sta--Ala--Sta--OMe] (Cbz-FV[Sta]A[Sta]-OMe)
0.7 µM	0.55 µM	0.045 µM	–	CC(C)C[C@H](NC(=O)[C@H](C)NC(=O)C[C@H](O)[C@H](CC(C)C)NC(=O)[C@H](Cc1c[nH]cn1)NC(=O)[C@H](Cc1ccccc1)NC(=O)OC(C)(C)C)[C@@H](O)CC(=O)O [SR 41492, Boc--Phe--His--Sta--Ala--Sta--OH] (Boc-FH[Sta]A[Sta]-OH)
0.87 µM	1.3 µM	–	–	COC(=O)C[C@H](O)[C@H](CC(C)C)NC(=O)[C@H](C)NC(=O)C[C@H](O)[C@H](CC(C)C)NC(=O)[C@H](Cc1c[nH]cn1)NC(=O)[C@H](Cc1ccccc1)NC(=O)OC(C)(C)C [SR 41395, Boc--Phe--His--Sta--Ala--Sta--OMe] (Boc-FH[Sta]A[Sta]-OMe)
0.13 µM	0.12 µM	–	–	COC(=O)C[C@H](O)[C@H](CC(C)C)NC(=O)[C@H](C)NC(=O)C[C@H](O)[C@H](CC(C)C)NC(=O)[C@H](Cc1c[nH]c2ccccc12)NC(=O)[C@H](Cc1c[nH]c2ccccc12)NC(=O)OC(C)(C)C [SR 41376, Boc--Trp--Trp--Sta--Ala--Sta--OMe] (Boc-WW[Sta]A[Sta]-OMe)
0.075 µM	0.029 µM	0.15 µM	0.00675 µM	COC(=O)C[C@H](O)[C@H](CC(C)C)NC(=O)[C@H](C)NC(=O)C[C@H](O)[C@H](CC(C)C)NC(=O)[C@@H](NC(=O)[C@H](Cc1c[nH]c2ccccc12)NC(=O)OCc1ccccc1)C(C)C [SR 41485, Z--Trp--Val--Sta--Ala--Sta--OMe] (Cbz-WV[Sta]A[Sta]-OMe)
0.75 µM	–	–	–	COC(=O)C[C@H](O)[C@H](CC(C)C)NC(=O)[C@H](C)NC(=O)C[C@H](O)[C@H](CC(C)C)NC(=O)[C@H](Cc1c[nH]cn1)NC(=O)[C@H](Cc1c[nH]c2ccccc12)NC(=O)OC(C)(C)C [SR 41619, Boc--Trp--His--Sta--Ala--Sta--OMe] (Boc-WH[Sta]A[Sta]-OMe)
0.18 µM	0.014 µM	0.19 µM	0.0035 µM	COC(=O)C[C@H](O)[C@H](CC(C)C)NC(=O)[C@H](C)NC(=O)C[C@H](O)[C@H](CC(C)C)NC(=O)[C@H](Cc1ccccc1)NC(=O)[C@H](Cc1ccccc1)NC(=O)OC(C)(C)C [SR 41331, Boc--Phe--Phe--Sta--Ala--Sta--OMe] (Boc-FF[Sta]A[Sta]-OMe)
–	0.042 µM	0.31 µM	0.012 µM	COC(=O)C[C@H](O)[C@H](CC(C)C)NC(=O)[C@H](C)NC(=O)C[C@H](O)[C@H](CC(C)C)NC(=O)[C@H](Cc1ccccc1)NC(=O)[C@H](Cc1ccccc1)NC(=O)CC(C)C [SR 41764, iVa--Phe--Phe--Sta--Ala--Sta--OMe] (Isovaleryl-FF[Sta]A[Sta]-OMe)
–	0.036 µM	0.88 µM	0.017 µM	COC(=O)C[C@H](O)[C@H](CC(C)C)NC(=O)[C@H](C)NC(=O)C[C@H](O)[C@H](CC(C)C)NC(=O)[C@H](Cc1ccccc1)NC(=O)[C@H](Cc1ccccc1)NS(=O)(=O)Cc1ccccc1 [SR 41939, C6 H5 CH2 SO2 --Phe--Phe--Sta--Ala--Sta--OCH3] (Benzylsulfonyl-FF[Sta]A[Sta]-OMe)
